Test results: patent US20240383871A1, “COMPOUND USEFUL FOR PET-IMAGING OF BRUTON’S TYROSINE KINASE” (Bristol-Myers Squibb Company, priority 2021, published 2024)

Assay: In-vivo PET imaging in rhesus monkey to determine brain penetrance
Settings: healthy rhesus monkey
Excerpt: The non-human primate was kept immobilized in the extended imaging bed inside the gantry of the PET imaging system (MicroPET® P4, Siemens Preclinical Solutions, Knoxville, TN). The scanning region was a single bed position from approximately the top of skull and extending through the lower neck area, to fit into the 7.6 cm MicroPET system axial FOV. A 10-minute transmission scan was acquired using a ^57Co point source for the purpose of attenuation correction of the subsequent emission image. Approximately 0.96 mCi of [^11C]-(R)-4-(2-acryloyl-1,2,3,4-tetrahydroisoquinolin-5-yl)-5-fluoro-2,3-dimethyl-1H-indole-7-carboxamide was injected IV and a 60-minute dynamic PET image was acquired. PET images were reconstructed with a filtered back projection (FBP) or MAP algorithm with attenuation correction. Using the AMIDE software package, an ROI encompassing the whole brain was manually drawn in the PET images. Mean standardized uptake value (SUV), which is normalized with body weight (kg) and injected dose (mCi), was calculated and plotted as a function of time to obtain a TAC. […] In healthy rhesus monkey, as in WT mice. there is very low brain expression of BTK in a non-diseased state.

brain penetrance (baseline (PET ligand only), IV, 0-60 minutes): confirmed brain penetrance
SMILES: C=C[11C](=O)N1CCc2c(cccc2-c2c(F)cc(C(N)=O)c3[nH]c(C)c(C)c23)C1 [[^11C]-(R)-4-(2-acryloyl-1,2,3,4-tetrahydroisoquinolin-5-yl)-5-fluoro-2,3-dimethyl-1H-indole-7-carboxamide]
brain time-activity curve (TAC) behaviour: rapid brain penetration followed by washout | brain uptake pattern (summed images 0-60 minutes post injection (FIG. 7)): Diffuse uptake was observed throughout the brain
